Laboratory results reported in EP1614683B1, “Indazole compounds and pharmaceutical compositions for inhibiting protein kinases, and methods for their use” (priority 1999, dated 2001).
Like-named read-outs stand apart in the source and are kept apart here.

Legend:
CDK1 = CDK1 (Homo sapiens, UniProt P06493); experiment: CDK1 assay (Table 3); format: biochemical; details: compound concentration 1 µM, NI = no significant inhibition
[1] = biological target: T1, phosphorylated Tie-2 (aa 775-1122) (Homo sapiens, UniProt Q02763); experiment: TIE-2 spectrophotometric assay; format: biochemical; details: for inhibition at 1 µM: Table 5, bold values spectrophotometric assay, non-bolded DELFIA assay (bold not visible here), read-out: % Inhibition @ 1 µM Tie2-P
T1 construct: 4 to 12 nM phosphorylated Tie-2 (aa 775-1122); made in house; host or cells: insect cells
How it was run: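 Human phosphorylated Tie-2 kinase activity was measured spectrophotometrically by coupling ADP formation, from phosphoryl transfer to poly(Glu4 Tyr), to NADH oxidation via pyruvate kinase and lactate dehydrogenase. Absorbance loss at 340 nm was read on a Beckman DU650. Reactions held 1 mM phosphoenolpyruvate, 0.24 mM NADH, 40 mM MgCl2, 5 mM DTT, 0.5 mM ATP, and 15 units/mL each of PK and LDH in 100 mM HEPES, pH 7.5.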

[2] = tested on: lung cancer cells (line MV522); experiment: Cancer cell proliferation (MV522) assay; format: cell-based; details: MV522, read-out: MV522 IC50 (µM)
Description: The protocol for assessing cellular proliferation in cancer cells is similar to that used for assessments in HUVEC cells. Two thousand lung cancer cells (line MV522, acquired from American Tissue Cultural Collection) were seeded in growth media (RPMI1640 medium supplemented with 2 mM glutamine and 10% FBS). Cells are allowed to attach for 1 day prior to addition of test agents and /or vehicles. Cells are treated simultaneously with the same test agents used in the HUVEC assay. Cellular proliferation is quantified by MTT dye reduction assay 72 hours after exposure to test agents. The total length of the assay is 4 days vs. 5 for HUVEC cells because MV522 cells are not exposed to starvation medium.

in vitro = in vitro ADME, human; details: human liver microsomes, 5 µM test compound, 37 °C, 2 h
How it was run: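 HLM diluted to 5 mg/mL in 100 mM KPO4, preincubated 10 min at 37 °C with NADPH-regenerating system. Compound (5 µM final) incubated at 37 °C in triplicate, sampled at 0 and 2 h into ice-cold acetonitrile, then LC-MS analysis.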

human FAK (FAKcd409) = biological target: T2, human FAK (FAKcd409) (Homo sapiens, UniProt Q05397, P410T); experiment: FAK fluorescence polarization assay; format: biochemical; details: for inhibition at 1 µM: Table 5, read-out: % Inhibition @ 1 µM FAK
T2 construct: comprises residues methionine 409 to glutamate 689; made in house; host or cells: baculovirus vector expression system (insect cells)
Description: FAK Construct for Assay. The catalytic domain of human FAK (FAKcd409) was expressed using the baculovirus vector expression system. […] The protein was purified using classical chromatography techniques.
FAK HTS utilized the fluorescence polarization assay provided by LJL Biosystems. The kinase reaction contained: 100mM Hepes pH 7.5, 10mM MgCl2, 1mM DTT, 1mM ATP, and 1mg/ml poly Glu-Tyr (4: 1). The reaction is initiated by the addition of 5nM FAKcd409. The reaction is terminated by the addition of EDTA followed by addition of fluor-labelled peptide and anti-phosphotyrosine antibody, both provided by LJL Biosystems. Inhibition results are read on a Analyst (LJL) detector.

[3] = IP, 50 mg/kg, vehicle PEG400:H2O pH 2.3 30:70
in vivo = details: mouse, plasma, ip, 50 mg/kg, pH 2.3
CDK4/Cyclin D3 complex = CDK4/Cyclin D3 complex (Homo sapiens, UniProt P11802); experiment: biochemical; details: read-out: CDK4 * (% inhibition)
CDK2/Cyclin A complex = CDK2/Cyclin A complex (Homo sapiens, UniProt P24941); experiment: CDK2/Cyclin A assay ([32P]ATP incorporation into Rb fragment); format: biochemical; details: read-out: CDK2 * (% inhibition)
[4] = biological target: unphosphorylated VEGF-R2Δ50 (Homo sapiens, UniProt P35968, DEL940-989/E990V); experiment: biochemical; details: read-out: FLVK* (% inhibition)
human CHK1 (FL-CHK1) = biological target: T3, human CHK1 (FL-CHK1) (Homo sapiens, UniProt O14757); experiment: CHK1 coupled spectrophotometric assay; format: biochemical; details: read-out: CHK -1* (% inhibition)
T3 construct: C-terminally His-tagged full-length human CHK1 (FL-CHK1) was expressed using the baculovirus/insect cell system; made in house; host or cells: baculovirus/insect cell system
T3 sequence (O14757 1-476): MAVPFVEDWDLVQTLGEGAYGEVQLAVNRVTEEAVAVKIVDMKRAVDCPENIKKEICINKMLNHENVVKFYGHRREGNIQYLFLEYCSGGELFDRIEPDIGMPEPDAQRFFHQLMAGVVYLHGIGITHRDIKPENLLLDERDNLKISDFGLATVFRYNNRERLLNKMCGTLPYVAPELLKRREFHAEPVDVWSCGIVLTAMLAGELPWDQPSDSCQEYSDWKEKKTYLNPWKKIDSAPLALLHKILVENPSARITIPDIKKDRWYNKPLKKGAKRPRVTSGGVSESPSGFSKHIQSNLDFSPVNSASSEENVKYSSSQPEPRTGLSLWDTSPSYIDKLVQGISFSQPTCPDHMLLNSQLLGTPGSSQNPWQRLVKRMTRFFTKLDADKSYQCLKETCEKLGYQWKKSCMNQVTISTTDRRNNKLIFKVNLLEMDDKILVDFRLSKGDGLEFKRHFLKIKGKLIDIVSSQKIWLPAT
How it was run: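 His-tagged full-length human CHK1 from baculovirus/insect cells, 10 nM, phosphorylating Syntide-2. ADP formation coupled via PK/LDH with PEP to NADH oxidation, followed as absorbance decrease at 340 nm. Ki from initial rates at varying compound concentrations.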

human FGF-R1 = human FGF-R1 (Homo sapiens, UniProt P11362, C488A/C584S/L457V); experiment: FGF-R spectrophotometric assay; format: biochemical; details: Table 1; compound concentration 1 µM; read-out: FGF-P* (% inhibition)
Description: The spectrophotometric assay was carried out as described above for VEGF-R2, except for the following changes in concentration: FGF-R = 50 nM, ATP = 2 mM, and poly(E4Y1) =15 mM.

[5] = tested on: human umbilical vein endothelial cells (HUVEC); experiment: HUVEC proliferation assay (VEGF-stimulated, MTT); format: cell-based; details: Homo sapiens, HUVEC, Table 1
LCK tyrosine kinase = LCK tyrosine kinase (Homo sapiens, UniProt P06239, C224D/P223M); experiment: LCK spectrophotometric assay; format: biochemical; details: Table 1; compound concentration 1 µM; read-out: Lck-P* (% inhibition)
Description: The spectrophotometric assay was carried out as described above for VEGF-R2, except for the following changes in concentration: LCK = 60 nM, MgCl2 = 0 mM, poly(E4Y1) = 20 mM.

[6] = Table 3, read-out: CDK1* (% inhibition)
[7] = + albumin, read-out: HUVEC + albumin IC50

Sequence of LCK tyrosine kinase (P06239 223-509 P223M/C224D): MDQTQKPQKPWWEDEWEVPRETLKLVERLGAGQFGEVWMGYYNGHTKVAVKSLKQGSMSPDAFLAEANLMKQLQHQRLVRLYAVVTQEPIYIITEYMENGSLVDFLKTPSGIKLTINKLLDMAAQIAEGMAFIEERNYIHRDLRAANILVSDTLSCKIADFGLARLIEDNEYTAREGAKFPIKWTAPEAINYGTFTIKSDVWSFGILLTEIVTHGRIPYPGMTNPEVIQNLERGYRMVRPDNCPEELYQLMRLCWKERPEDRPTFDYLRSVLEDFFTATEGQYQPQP
T1 sequence (Q02763 775-1122): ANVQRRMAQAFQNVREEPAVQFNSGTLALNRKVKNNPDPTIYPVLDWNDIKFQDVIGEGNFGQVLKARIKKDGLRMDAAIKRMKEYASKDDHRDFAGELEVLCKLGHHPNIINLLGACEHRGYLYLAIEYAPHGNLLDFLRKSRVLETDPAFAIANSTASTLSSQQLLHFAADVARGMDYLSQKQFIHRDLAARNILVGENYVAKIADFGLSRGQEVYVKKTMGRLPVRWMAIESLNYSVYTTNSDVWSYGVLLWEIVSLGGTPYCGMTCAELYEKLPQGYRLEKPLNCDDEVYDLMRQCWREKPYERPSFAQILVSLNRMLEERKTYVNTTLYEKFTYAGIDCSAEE
Sequence of CDK1 (P06493 whole entry, species assumed, the tested form may be a part): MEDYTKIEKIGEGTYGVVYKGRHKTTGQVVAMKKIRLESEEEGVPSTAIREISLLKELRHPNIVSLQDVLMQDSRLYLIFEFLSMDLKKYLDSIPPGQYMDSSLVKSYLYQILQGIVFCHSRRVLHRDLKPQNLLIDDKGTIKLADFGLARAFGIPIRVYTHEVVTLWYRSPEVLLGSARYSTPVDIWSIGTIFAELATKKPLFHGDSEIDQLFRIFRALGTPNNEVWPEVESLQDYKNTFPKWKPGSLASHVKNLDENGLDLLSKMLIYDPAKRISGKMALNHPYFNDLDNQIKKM
Sequence of CDK1 (P14635 whole entry partner, species assumed, the tested form may be a part): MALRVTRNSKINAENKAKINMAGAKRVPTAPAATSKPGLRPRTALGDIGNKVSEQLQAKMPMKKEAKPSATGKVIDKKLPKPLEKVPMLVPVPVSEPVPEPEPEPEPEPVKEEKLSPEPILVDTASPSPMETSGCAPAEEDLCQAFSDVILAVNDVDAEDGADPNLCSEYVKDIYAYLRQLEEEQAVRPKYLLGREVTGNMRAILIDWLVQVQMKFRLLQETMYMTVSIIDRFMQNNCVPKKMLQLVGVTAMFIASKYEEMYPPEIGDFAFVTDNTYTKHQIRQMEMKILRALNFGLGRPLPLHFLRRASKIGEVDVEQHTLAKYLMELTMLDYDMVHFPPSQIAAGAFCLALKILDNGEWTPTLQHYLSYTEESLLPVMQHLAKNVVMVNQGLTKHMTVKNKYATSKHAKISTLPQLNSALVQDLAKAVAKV
T2 sequence (Q05397 409-689 P410T): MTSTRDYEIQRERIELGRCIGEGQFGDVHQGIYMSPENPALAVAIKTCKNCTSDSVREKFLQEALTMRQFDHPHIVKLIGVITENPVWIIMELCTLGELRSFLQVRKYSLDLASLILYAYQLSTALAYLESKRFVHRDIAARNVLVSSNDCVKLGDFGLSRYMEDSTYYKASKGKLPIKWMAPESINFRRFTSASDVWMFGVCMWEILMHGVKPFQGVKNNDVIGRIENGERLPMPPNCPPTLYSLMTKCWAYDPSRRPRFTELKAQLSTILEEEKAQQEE
Sequence of CDK4/Cyclin D3 complex (P11802 whole entry, the tested form may be a part): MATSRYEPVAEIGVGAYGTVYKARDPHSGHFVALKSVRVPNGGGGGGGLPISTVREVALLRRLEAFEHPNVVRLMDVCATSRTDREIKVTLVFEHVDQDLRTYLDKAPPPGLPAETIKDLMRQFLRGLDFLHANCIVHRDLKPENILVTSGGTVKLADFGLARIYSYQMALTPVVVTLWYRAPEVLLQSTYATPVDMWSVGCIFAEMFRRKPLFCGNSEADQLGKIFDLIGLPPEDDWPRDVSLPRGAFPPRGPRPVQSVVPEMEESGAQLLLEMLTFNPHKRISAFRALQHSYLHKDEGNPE
Sequence of CDK4/Cyclin D3 complex (P30281 whole entry partner, the tested form may be a part): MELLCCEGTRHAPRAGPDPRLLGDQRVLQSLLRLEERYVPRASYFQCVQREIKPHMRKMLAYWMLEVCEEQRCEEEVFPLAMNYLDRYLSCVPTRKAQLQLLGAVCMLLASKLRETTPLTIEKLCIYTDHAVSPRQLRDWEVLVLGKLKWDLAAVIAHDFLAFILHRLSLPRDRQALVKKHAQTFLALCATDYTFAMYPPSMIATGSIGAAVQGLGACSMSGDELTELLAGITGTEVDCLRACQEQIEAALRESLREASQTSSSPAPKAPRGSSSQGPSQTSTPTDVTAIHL
Sequence of unphosphorylated VEGF-R2Δ50 (P35968 with tags, fused parts or gaps DEL940-989/E990V limits assumed): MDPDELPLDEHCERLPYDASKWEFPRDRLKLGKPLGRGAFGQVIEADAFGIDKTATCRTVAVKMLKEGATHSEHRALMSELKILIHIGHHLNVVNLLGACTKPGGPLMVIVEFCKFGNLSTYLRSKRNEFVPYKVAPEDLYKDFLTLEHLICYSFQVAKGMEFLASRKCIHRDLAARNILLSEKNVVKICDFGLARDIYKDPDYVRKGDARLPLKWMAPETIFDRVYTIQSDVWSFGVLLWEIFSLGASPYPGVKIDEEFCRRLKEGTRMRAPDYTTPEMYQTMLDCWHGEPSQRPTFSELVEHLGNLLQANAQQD
Sequence of human FGF-R1 (P11362 456-766 L457V/C488A/C584S): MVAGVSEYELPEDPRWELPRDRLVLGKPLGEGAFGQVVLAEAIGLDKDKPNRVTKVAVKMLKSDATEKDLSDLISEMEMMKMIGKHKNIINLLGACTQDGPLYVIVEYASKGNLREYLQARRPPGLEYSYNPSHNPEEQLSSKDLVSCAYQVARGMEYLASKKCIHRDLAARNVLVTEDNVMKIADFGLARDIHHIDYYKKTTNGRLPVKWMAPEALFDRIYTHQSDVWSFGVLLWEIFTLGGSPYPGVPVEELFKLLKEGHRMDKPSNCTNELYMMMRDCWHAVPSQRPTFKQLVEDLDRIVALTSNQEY

Fc1cc(F)cc(/C=C/c2n[nH]c3cc(-c4ccncc4)ccc23)c1 [Reference Example 29(m), 6-pyrid-4-yl-3-E-[2-(3,5-difluorophenyl)ethenyl]-1H-indazole]
inhibition at 1 µM (CDK1; [6]): 54%

COc1cc(-c2ccc3c(/C=C/c4ccc(OC)c(OC)c4)n[nH]c3c2)ccc1O [1(a), 3-[E-2-(3,4-Dimethoxy-phenyl)vinyl]-6-(3-methoxy-4-hydroxyphenyl)-1H-indazole]
inhibition at 10 µM ([1]; read-out: % Inhibition Tie2-P, compound tested at 10 µM): 95%
IC50 [2]: 0.35 µM
% remain (HLM, 2 h) (in vitro): 98%
inhibition at 10 µM (human FAK (FAKcd409); read-out: % Inhibition FAK, compound tested at 10 µM): 69%
T1/2 [3]: 2.4 h
AUC (in vivo): 691 ng·h/mL

Clc1ccc(/C=C/c2n[nH]c3cc(-c4ccncc4)ccc23)cc1 [Reference Example 29(c)]
inhibition at 1 µM (CDK1; read-out: CDK1* (% inhibition), Table 3): 56%

Oc1ccc(-c2ccc3c(/C=C/c4ccccc4)n[nH]c3c2)cc1O [Reference Example 28(d), 6-(3,4-dihydroxyphenyl)-3-E-styryl-1H-indazole]
inhibition at 1 µM (CDK1; [6]): 93%
inhibition at 1 µM (CDK4/Cyclin D3 complex): 87%
inhibition at 1 µM (CDK2/Cyclin A complex): 66%

CC(C)(C)c1ccc2[nH]c(-c3n[nH]c4cc(C(=O)Nc5ccc(O)cc5)ccc34)nc2c1 [Example 54(g), 3-(5-tert-Butyl-1H-benzoimidazol-2-yl)-N-(4-hydroxyphenyl)-1H-indazole-6-carboxamide]
inhibition at 1 µM (CDK1; [6]): 3%

Oc1cccc(-c2ccc3c(/C=C/c4ccccc4)n[nH]c3c2)c1 [Reference Example 28(a), 6-(3-hydrophenyl)-3-E-styryl-1H-indazole]
inhibition at 1 µM [4]: 84%
inhibition at 1 µM (CDK1; [6]): 77%
inhibition at 1 µM (CDK4/Cyclin D3 complex): 79%
inhibition at 1 µM (CDK2/Cyclin A complex): 75%

FC(F)(F)Oc1cccc(/C=C/c2n[nH]c3cc(-c4ccncc4)ccc23)c1 [Reference Example 29(p), 6-pyrid-4-yl-3-E-[2-(3-trfluorometboxyphenyl)ethenyl]-1H-indazole]
inhibition at 1 µM (CDK1; [6]): 6%

O=C(Nc1ccc(O)cc1)c1ccc2c(-c3nc4ccc5ccccc5c4[nH]3)n[nH]c2c1 [Example 54(e), 3-[1H-Naphtho(1,2-d)imidazol-2-yl]-N-(4-hydroxyphenyl)-1H-indazole-6-carboxamide]
CDK1* (% inhibition) (CDK1; Table 3): Nl @ 1µM

C=CCn1nc(C)cc1C(=O)Nc1cccc(C(=O)c2ccc3c(/C=C/c4ccccn4)n[nH]c3c2)c1 [Reference Example 41(t), 6-[3-((1-Allyl-3-methyl-1H-pyrazol-5-yl)carboxamido)benzoyl]-3-E-[2-(pyridin-2-yl)ethenyl]-1H-indazole]
inhibition at 1 µM [1]: 51%
% remain (HLM, 2 h) (in vitro): 87%
inhibition at 1 µM (human CHK1 (FL-CHK1)): 0%
inhibition at 1 µM (CDK4/Cyclin D3 complex): 2%
inhibition at 1 µM (human FAK (FAKcd409)): 9%
inhibition at 1 µM (human FGF-R1): 85%
IC50 [5, 7]: 3.8 nM
inhibition at 1 µM (LCK tyrosine kinase): 51%
inhibition at 1 µM (CDK2/Cyclin A complex): 1%

NC(=O)c1ccc2c(-c3nc4ccccc4[nH]3)n[nH]c2c1 [Example 53(e), 3-(1H-Benzoimidazol-2-yl)-1H-indazole-6-carboxamide]
inhibition at 1 µM (CDK1; [6]): 13%

CCOc1cc(-c2ccc3c(/C=C/c4ccccc4)n[nH]c3c2)ccc1O [Reference Example 27(h), 6-[3-ethoxy-4-hydroxyphenyl]-3-E-styryl-1H-indazole]
inhibition at 1 µM (CDK1; [6]): 84%

Cc1cc(C(=O)Nc2cccc(C(=O)c3ccc4c(/C=C/c5ccccn5)n[nH]c4c3)c2)n(C)n1 [Reference Example 41(p), 6-[3-((1,3-Dimethyl-1H-pyrazol-5-yl)carboxamido)benzoyl]-3-E-[2-(pyridin-2-yl)ethenyl]-1H-indazole]
inhibition at 1 µM [1]: 49%
% remain (HLM, 2 h) (in vitro): 62%
inhibition at 1 µM (human CHK1 (FL-CHK1)): 0%
inhibition at 1 µM (CDK4/Cyclin D3 complex): 3%
inhibition at 1 µM (human FAK (FAKcd409)): 9%
IC50 [5, 7]: 2.6 nM
IC50 ([5]; read-out: HUVEC IC50): 0.27 nM
inhibition at 1 µM (LCK tyrosine kinase): 49%
inhibition at 1 µM (CDK2/Cyclin A complex): 6%

CCn1nc(C)cc1C(=O)Nc1cc(Nc2ccc3c(/C=C/c4ccccn4)n[nH]c3c2)c(F)cc1C [Example 48(a), 6-[N.(S-((1-Ethyl-3-methyl-1H-pyrazol-5-yl)carboxamido)-2-fluoro-4-methylphenyl)amino]-3-E-[2-(pyridin-2-yl)ethenyl]-1H-indazole]
inhibition at 1 µM [1]: 52%
% remain (HLM, 2 h) (in vitro): 55%
inhibition at 1 µM (human CHK1 (FL-CHK1)): 0%
inhibition at 1 µM (human FAK (FAKcd409)): 11%
inhibition at 1 µM (LCK tyrosine kinase): 13%
inhibition at 1 µM (CDK2/Cyclin A complex): 0%

OCCOc1cc(-c2ccc3c(/C=C/c4ccccc4)n[nH]c3c2)ccc1O [Reference Example 27(i), 6-[3-(2-hydroxyethoxy)-4-hydroxyphenyl]-3-E-styryl-1H-indazole]
inhibition at 1 µM (CDK1; [6]): 85%
inhibition at 1 µM (CDK4/Cyclin D3 complex): 92%
inhibition at 1 µM (CDK2/Cyclin A complex): 73%

O=C(Nc1ccc(O)cc1)c1ccc2c(-c3nc4cc(F)c(F)cc4[nH]3)n[nH]c2c1 [Example 54(a), 3-(5,6-Difluoro-1H-benzoimidazol-2-yl)-N-(4-hydroxyphenyl)-1H-indazole-6-carboxamide]
inhibition at 1 µM (CDK1; [6]): 1%

Oc1ccc(-c2ccc3c(/C=C/c4ccccc4)n[nH]c3c2)cc1 [Reference Example 28(b), 6-(4-hydroxyphenyl)-3-E-styryl-1H-indazole]
inhibition at 1 µM [4]: 96%
inhibition at 1 µM (CDK4/Cyclin D3 complex): 98%
inhibition at 1 µM (CDK2/Cyclin A complex): 97%

Cc1nc(/C=C/c2n[nH]c3cc(-c4ccncc4)ccc23)cs1 [Reference Example 29(j), 6-pyrid-4-yl-3-E-[2-(2-methylthiazol-4-yl)ethenyl]-1H-indazole]
inhibition at 1 µM (CDK1; [6]): 31%
